Assays:
Parameters in all cases: species or system NOD-SCID mice
[1] = system: human mesenchymal stem cells (MSC); assay: In vivo trafficking of 111In-labeled human mesenchymal stem cells (MSC) after glycoprotein infusion, gamma camera imaging; conditions: for % Infused Cells in Heart: 0.56×10^6 MSC preceded by 11 mg orosomucoid i.v.
Method: Human mesenchymal stem cells (hMSCs; PT-2501) obtained through a FDA monitored paid bone marrow donor program were purchased from Poietics Technologies, BioWhittaker (Walkerville, Md.). The cells were thawed according to manufacturer recommendations, resuspended, and radiolabeled in Mesenchymal Stem Cell Basal Medium (MSCBM).
(§1) ^111Indium Oxine Labeling Procedure: ^111In-oxine labeling of adult human CD34+ or mesenchymal stem cells (hMSCs) was performed using a modification of the Amersham Healthcare Procedure for labeling autologous leukocytes.
(§2) Imaging procedures: Nuclear Medicine. NOD-SCID mice were anesthetized using rodent anesthesia cocktail. Once anesthetized, the mice were placed on a foam hemi-cylindrical mouse positioning device (MPD) and covered with a tube sock. The MPD allows better visual separation of the lungs and liver as compared to placing the mouse on a flat surface. The foam on which the mouse was placed, and the tube sock covering maintained a comfortable temperature permitting longer imaging without additional anesthesia. The MPD was placed on a narrow table between the dual heads of a Siemens E.Cam Gamma Camera and imaged statically or dynamically in 2-D or SPECT. ^57Co-Spot Marker is used to mark anatomic positions (nose, tail, cannula, etc.). The data was analyzed using a Siemens ICON system for regions of interest or percent of injected dose (e.g. liver, spleen, heart).
(§3) Gamma camera imaging using a Siemens E. Cam dual head gamma camera monitored the in vivo trafficking patterns of all human stem cells described in the following examples. Mice were placed on a Mouse Positioning Device (MPD) and placed between the detectors on the imaging platform.
MSC were obtained from BioWhittaker, (Poietics Division, cryopreserved PT-2501 >750,000 cells per ampoule) and labeled with ^111In as in previous examples, except that the MSC were labeled, washed, and injected in Basal Stem Cell Medium (Poietics) containing 5% human serum albumin (HSA). 0.56×10^6 111In labeled, human mesenchymal stem cells (MSC) were administered via an implanted Da Vinci Microport Vascular System cannula in the external jugular vein of a two-month old, female NOD-SCID mouse in 0.21 ml of basal stem cell medium containing 5% human serum albumin (HSA). Immediately prior to administration of MSC, 11.0 mg of orosomucoid was administered i.v. in 0.2 ml.
0.56×10^6 “In-labeled, MSC were administered i.v. in 0.21 ml of basal stem cell medium containing 5% human serum albumin (HSA). Prior to administration of MSC, 0.1 ml containing 4.3 mg of ASO, followed by 0.1 ml containing 5.5 mg orosomucoid were administered i.v. The ASO, orosomucoid and MSC were administered via an implanted Da Vinci Microport Vascular system cannula in the external jugular vein of a two-month old, female NOD-SCID mouse.

[2] = system: human CD34+ (hCD34+) peripheral blood stem cells; assay: In vivo trafficking of 111In-labeled human CD34+ stem cells (HSC) after glycoprotein infusion, gamma camera imaging; conditions: 0.5×10^6 HSC preceded by 11 mg orosomucoid i.v.
[3] = system: human CD34+ (hCD34+) peripheral blood stem cells; assay: as above; conditions: for % Infused Cells in Liver/Spleen: 5.75×10^6 HSC preceded by 5.5 mg orosomucoid i.v.; for organ localization of infused hematopoietic (CD34+) stem cells, in words: cells preceded by infusion of the protein, jugular vein, immunodeficient mice
Method: Intravenous cannulas were placed into the external jugular vein of NOD-SCID mice under anesthesia (Institutional Animal Care and Use Committee protocol #AM87046-07) to enable the efficient delivery of ^111In-labeled stem cells i.v. Tylenol elixir was administered by mouth after recovery from anesthesia. Briefly radiolabeled CD34+ cells were taken up in 100-250 ul of 5% human plasma albumin in saline and injected into the cannula and then flushed with 50 ul of the albumin-saline. The mice were imaged by nuclear medicine.
Mice: NOD-SCID, female mice (Nonobese diabetic/LtSz-scid/scid) were obtained from the Jackson Laboratory, Bar Harbor, Me. at 1-2 months of age. These animals were maintained in microisolator cages in a special isolator room. The air was HEPA filtered, and the animals were changed in a laminar flow hood within the facility. All food, bedding, and water was sterilized. […] See, e.g. Hogan, et al., Biology of Blood & Marrow Transplantation 3:236-246 (1997); Noort, et al., Bone Marrow Transplantation 22 Suppl 1:S58-60 (1998).
as §1, §2, §3
5.75×10^6 111In-labeled human CD34+ (hCD34+) peripheral blood stem cells were administered intravenously (i.v.) via an external jugular vein cannula to 2 month old, NOD-SCID, female mice (Non-obese diabetic/LtSz-scid/scid) obtained from the Jackson Laboratory, Bar Harbor, Me. The radiolabeled CD34+ stem cells were administered after pretreatment of the mouse with 3.3 mg of asialoorosomucoid (ASO) i.v. The in vivo trafficking patterns were followed by gamma camera imaging using a Siemens E.Cam dual head gamma camera from immediately after injection up to 36 hr postinfusion. Human CD34+ were isolated from apheresis stem cell collection products derived from deceased cancer patients. They were purified to 95-99% purity using antibody conjugated to CD34 conjugated to magnetics beads (MACS) separation columns; Miltenyi Biotec, Auburn, Calif. and cryopreserved.
5.75×10^6 111In-labeled human CD34+ (hCD34+) peripheral blood stem cells were administered intravenously (i.v.) via an external jugular vein cannula to 2 month old, NOD-SCID, female mice (Non-obese diabetic/LtSz-scid/scid) obtained from the Jackson Laboratory, Bar Harbor, Me. The radiolabeled CD34+ stem cells were administered after pretreatment of the mouse with 5.5 mg of orosomucoid (O) i.v.
The preparation and procedures set forth in Example I were repeated. […]

With “alpha-(1)-acid glycoprotein [Orosomucoid]” the “% Infused Cells in Heart” value ([1]; 0 hr) was 68 ± 7% at 0 hr, the “% Infused Cells in Heart” value ([1]; 0 hr, listed as orosomucoid) was 68±7% and the “% Infused Cells in Heart” value ([1]; 1 hr) was 61 ± 3% at 1 hr. The “% Infused Cells in Heart” value ([1]; 1 hr, listed as orosomucoid) was 61±3%, the “organ localization of infused mesenchymal stem cells, in words” value ([1]; cells preceded by infusion of the protein, jugular vein, immunodeficient mice) was “predominantly localize in the heart” and the “% of infused cells in the liver region” value ([2]; 1 hr) was 40±3%. For the same substance, the “% of infused cells in the liver and spleen” value ([2]; immediately after infusion) was 43±2%, the “111In-labeled cells in the region of the heart, in words” value ([3]; 5.75×10^6 HSC after 5.5 mg orosomucoid i.v., up to 36 hours) was “No ^111In-labeled cells were found in the region of the heart” and the “% Infused Cells in Liver/Spleen” value ([3]; 1.5 hr) was 74 ± 4% at 1.5 hr. For the same substance, the “% Infused Cells in Liver/Spleen” value ([3]; 1.5 hr, listed as orosomucoid) was 74±4%, the “% Infused Cells in Liver/Spleen” value ([3]; 24 hr) was 63 ± 1% at 24 hr and the “% Infused Cells in Liver/Spleen” value ([3]; 24 hr, listed as O) was 63.6%. For the same substance, the “% Infused Cells in Liver/Spleen” value ([3]; 24 hr, listed as orosomucoid) was 63±1%, the “% Infused Cells in Liver/Spleen” value ([3]; immediately after infusion (0 hr)) was 74 ± 3% at 0 hr and the “% Infused Cells in Liver/Spleen” value ([3]; immediately after infusion (0 hr), listed as O) was 76.3%. The “% Infused Cells in Liver/Spleen” value ([3]; immediately after infusion (0 hr), listed as orosomucoid) was 74±3%, the “organ localization of infused hematopoietic (CD34+) stem cells, in words” value ([3]; listed as O) was “migrated immediately to the liver/spleen area” and the “organ localization of infused hematopoietic (CD34+) stem cells, in words” value ([3]; listed as orosomucoid (O)) was “localize in the liver”.

Source: patent US20070110734A9, “Methods and compositions using cellular asialodeterminants and glycoconjugates for targeting cells to tissues and organs” (Department of Veterans Affairs, Rehabilitation R&D Service, priority 2002, published 2007)
